Assay results reported in publication PMC7607171, “Optimized low‐dose combinatorial drug treatment boosts selectivity and efficacy of colorectal carcinoma treatment” (Molecular Oncology, 2020).

Legend:
HCT116 cells = assay: Tunneling nanotubule (TNT) quantification, F-actin/DAPI staining; assay type: cell-based, human
SW620 cells = assay: CellTiter-Glo metabolic ATP activity assay, 2D culture; assay type: cell-based, human; conditions: low-dose single drug (hormetic dose effect)
Protocol: Drugs were dissolved in DMSO and stored at −80, and aliquots were thawn prior to each use. Drugs were dissolved at concentrations resulting in in vitro experimental conditions 0.15% DMSO maximum in the culture medium. […] The 48‐hour retreatment was performed by adding another volume of media containing a 1x concentration of drugs to not affect the final concentration in the wells.
Drug treatment activity in 2D and 3D cultures was measured using the CellTiter‐Glo® cell metabolic activity (ATP) assays (G7572 and G9683, Promega, Madison, WI, USA), according to the manufacturer`s instructions. Assay bioluminescence was detected using the BioTek Cytation 3 and corresponding Gen5 Image software version 3.04 at standard settings.
The next step is the drug combination screening in Search 1 (11 drugs in 155 combinations) according to the OACD resolution IV matrix and performed in the CRC and the nonmalignant CCD841CoN cell simultaneously. The resulting output of the drug combination activity was measured in cell metabolic activity (ATP levels, % CTRL) to represent cell viability and consisted of the average of technical triplicate values. The experimental data points are then used for step‐wise second‐order linear regression analysis by Matlab®. This model mathematically describes the relationship between the drug combination input and output activity of each possible two‐drug combination. […]

## CCCS(=O)(=O)Nc1ccc(F)c(C(=O)c2c[nH]c3ncc(-c4ccc(Cl)cc4)cc23)c1F [vemurafenib]
HCT116 cells; single drug (CTRL 9.5%)
  cells forming tunneling nanotubules (TNTs, > 10 µm): 14.0%
HCT116 cells; single drug (CTRL 21 µm), nonsignificant
  TNT length: 32 µm
SW620 cells
  effect on cell viability: increased cell viability
